These are literature values, as cited in patent US20090062369A1, “USE OF SECRETORY PHOSPHOLIPASE A2 (SPLA2) INHIBITORS TO DECREASE SPLA2 LEVELS” (priority 2007, published 2009).

This data set has as its system sPLA2. Particulars: cited from earlier work.

As for `CCc1c(C(=O)C(N)=O)c2c(OCC(=O)O)cccc2n1Cc1ccccc1` [A-001, ((3-(2-Amino-1,2-dioxoethyl)-2-ethyl-1-(phenylmethyl)-1H-indol-4-yl)oxy)acetic acid], the “mode of sPLA2 inhibition” value is recorded as “competitively inhibits sPLA2”.
